Source: patent US10342781B2, “Diazole amides” (CHEMOCENTRYX, INC., priority 2012, dated 2019)

target: T1, CCR1 (Homo sapiens, UniProt P32246); test: Chemotaxis (migration) assay; type: cell-based; details: THP-1 or monocyte cells, CCR1 chemokine ligand (MIP-1α, CCL15/Leukotactin), 1-2 hours at 37° C.
T1 construct: host or cells: THP-1 myelomonocytic leukemia cells (or freshly isolated monocytes)
T1 sequence (P32246 1-355): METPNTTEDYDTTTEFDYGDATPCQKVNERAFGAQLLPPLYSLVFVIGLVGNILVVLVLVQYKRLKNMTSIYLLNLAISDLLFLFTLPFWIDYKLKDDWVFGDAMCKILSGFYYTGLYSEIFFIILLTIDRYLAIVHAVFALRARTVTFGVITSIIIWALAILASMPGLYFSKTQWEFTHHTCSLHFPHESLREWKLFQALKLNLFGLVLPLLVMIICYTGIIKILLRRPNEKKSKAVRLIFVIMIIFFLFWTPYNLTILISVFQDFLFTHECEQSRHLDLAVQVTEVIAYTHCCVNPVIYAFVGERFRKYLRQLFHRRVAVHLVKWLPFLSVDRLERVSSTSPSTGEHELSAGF
Protocol: THP-1 cells were obtained from ATCC (TIB-202) and cultured as a suspension in RPMI-1640 medium supplemented with 2 mM L-glutamine, 1.5 g/L sodium bicarbonate, 4.5 g/L glucose, 10 mM HEPES, 1 mM sodium pyruvate, 0.05% 2-mercaptoethanol and 10% FBS. Cells were grown under 5% CO2/95% air, 100% humidity at 37° C. and subcultured twice weekly at 1:5 (cells were cultured at a density range of 2×10^5 to 2×10^6 cells/mL) and harvested at 1×10^6 cells/mL. THP-1 cells express CCR1 and can be used in CCR1 binding and functional assays.
Chemotaxis assays were performed using 5 μm pore polycarbonate, polyvinylpyrrolidone-coated filters in 96-well chemotaxis chambers (Neuroprobe; Gaithersburg, Md.) using chemotaxis buffer (Hank's balanced salt solution (HBSS) and 1% FBS). CCR1 chemokine ligands (i.e., MIP-1α, CCL15/Leukotactin; R&D Systems; Minneapolis, Minn.) are use to evaluate compound mediated inhibition of CCR1 mediated migration. Other chemokines (i.e., SDF-1α; R&D Systems; Minneapolis, Minn.) are used as specificity controls. The lower chamber was loaded with 29 μl of chemokine (i.e., 0.1 nM CCL15/Leukotactin) and varying amounts of compound, the top chamber contained 100,000 THP-1 or monocyte cells in 20 μl. The chambers were incubated 1-2 hours at 37° C., and the number of cells in the lower chamber quantified either by direct cell counts in five high powered fields per well or by the CyQuant assay (Molecular Probes), a fluorescent dye method that measures nucleic acid content and microscopic observation.
One of the primary functions of chemokines is their ability to mediate the migration of chemokine receptor-expressing cells, such as white blood cells. To confirm that a compound of interest inhibited not only CCR1 specific binding and signaling (at least as determined by calcium mobilization assays), but also CCR1 mediated migration, a chemotaxis assay was employed. THP-1 myelomonocytic leukemia cells, which resemble monocytes, as wells as freshly isolated monocytes, were used as targets for chemoattraction by CCR1 chemokine ligands (i.e., MIP-1α, CCL15/leukotactin). Cells were placed in the top compartment of a microwell migration chamber, while MIP-1α (or other potent CCR1 chemokine ligand) and increasing concentrations of a compound of interest was loaded in the lower chamber. […] To ascertain a compound of interest's affinity for CCR1 as well as to confirm its ability to inhibit CCR1 mediated cell migration, inhibitory activity was titered over a 1×10^−10 to 1×10^−4 M range of compound concentrations in this chemotaxis assay. In this assay, the amount of compound was varied; while cell number and chemokine agonist concentrations were held constant. After the chemotaxis chambers were incubated 1-2 hours at 37° C., the responding cells in the lower chamber were quantified by labeling with the CyQuant assay (Molecular Probes), a fluorescent dye method that measures nucleic acid content, and by measuring with a Spectrafluor Plus (Tecan). The computer program Prism from GraphPad, Inc. (San Diego, Ca) was used to calculate IC50 values. IC50 values are those compound concentrations required to inhibit the number of cells responding to a CCR1 agonist by 50%.

**Q.** With `Cc1nc(C(F)(F)F)cn1C(C)C(=O)Nc1nnn(-c2ccc(Cl)cc2)c1C(C)C` (stereo not drawn) [1.001] as the compound, how does the IC50 read?
**A.** Its IC50 is at most 100 nM.

**Q.** With `Cc1nc(C(F)(F)F)cn1C(C)C(=O)Nc1cnn(-c2ccc(Cl)cc2)c1C1CC1` (stereo not drawn) [1.002] as the compound, how does the IC50 read?
**A.** The IC50 was 100 to 10000 nM.

**Q.** With `Cc1nc(C(F)(F)F)cn1C(C)C(=O)Nc1cnn(-c2ccc(F)cc2)c1N(C)C` (stereo not drawn) [1.003] as the compound, how does the IC50 read?
**A.** Its IC50 is 100 to 10000 nM.

**Q.** `Cc1nc(C(F)(F)F)cn1C(C)C(=O)Nc1cnn(-c2ccc(F)cc2)c1Cl` (stereo not drawn) [1.004] was tested. Which IC50 did it give?
**A.** Its IC50 is 100 to 10000 nM.

**Q.** For `Cc1nc(C(F)(F)F)cn1C(C)C(=O)Nc1cnn(-c2ccc(F)cc2)c1OC(C)C` (stereo not drawn) [1.005], which IC50 is on record?
**A.** The IC50 was 100 to 10000 nM.

**Q.** For `CCOc1c(NC(=O)C(C)n2cc(C(F)(F)F)nc2C)cnn1-c1ccc(F)cc1` (stereo not drawn) [1.006], which IC50 is on record?
**A.** The IC50 was 100 to 10000 nM.

**Q.** `Cc1c(Cl)c(C(F)(F)F)nn1C(C)(C)C(=O)Nc1cnn(-c2ccc(F)cc2)c1C(C)C` [1.007] was tested. Which IC50 did it give?
**A.** Its IC50 is 100 to 10000 nM.

**Q.** How did the IC50 turn out when `Cc1nc(C(F)(F)F)nn1C(C)C(=O)Nc1cnn(-c2ccc(F)cc2)c1C(C)C` (stereo not drawn) [1.008] was run?
**A.** Its IC50 is 100 to 10000 nM.

**Q.** With `Cc1nc(C(F)(F)F)cn1C(C)C(=O)Nc1cnn(-c2ccc(F)cc2)c1C(C)C` (stereo not drawn) [1.009] as the compound, how does the IC50 read?
**A.** The IC50 was at most 100 nM.

**Q.** For `Cc1nc(C(F)(F)F)nn1C(C)C(=O)Nc1cnn(-c2ccc(Cl)cc2)c1C(C)C` (stereo not drawn) [1.010], which IC50 is on record?
**A.** Its IC50 is at most 100 nM.

**Q.** For `Cc1nc(C(F)(F)F)cn1C(C)C(=O)Nc1cnn(-c2ccc(Cl)cc2)c1C(C)C` (stereo not drawn) [1.011], which IC50 is on record?
**A.** The IC50 was at most 100 nM.

**Q.** How did the IC50 turn out when `Cc1nc(C(F)(F)F)c2n1C(C(=O)Nc1cnn(-c3ccc(Cl)cc3)c1C(C)C)CCC2` (stereo not drawn) [1.012] was run?
**A.** The IC50 was at most 100 nM.

**Q.** Which IC50 does the source give for `Cc1nc(C(F)(F)F)cn1C(C)C(=O)Nc1cnn(-c2ccc(F)cc2)c1C(C)(C)C` (stereo not drawn) [1.013] here?
**A.** The IC50 was 100 to 10000 nM.

**Q.** `Cc1c(Cl)c(C(F)(F)F)nn1C(CCCCO)C(=O)Nc1cnn(-c2ccc(F)cc2)c1C(C)C` (stereo not drawn) [1.014] was tested. Which IC50 did it give?
**A.** The IC50 was 100 to 10000 nM.

**Q.** How did the IC50 turn out when `Cc1nc(C(F)(F)F)cn1C(C)C(=O)Nc1cnn(-c2ccc(Cl)cc2)c1C(C)C` (stereo not drawn) [1.015] was run?
**A.** Its IC50 is at most 100 nM.

**Q.** `Cc1c(Cl)c(C(F)(F)F)nn1C(C)C(=O)Nc1cnn(-c2ccc(F)cc2)c1C(C)C` (stereo not drawn) [1.016] was tested. Which IC50 did it give?
**A.** The IC50 was at most 100 nM.

**Q.** `CCC(C(=O)Nc1cnn(-c2ccc(F)cc2)c1C(C)C)n1nc(C(F)(F)F)c(Cl)c1C` (stereo not drawn) [1.017] was tested. Which IC50 did it give?
**A.** Its IC50 is at most 100 nM.

**Q.** With `Cc1nc(C(F)(F)F)cn1C(C)C(=O)Nc1cnn(-c2ccc(F)cc2)c1C(C)C` (stereo not drawn) [1.018] as the compound, how does the IC50 read?
**A.** The IC50 was at most 100 nM.

**Q.** Which IC50 does the source give for `CCC(C(=O)Nc1cnn(-c2ccc(F)cc2)c1C(C)C)n1cc(C(F)(F)F)nc1C` (stereo not drawn) [1.019] here?
**A.** Its IC50 is at most 100 nM.

**Q.** Which IC50 does the source give for `Cc1c(NC(=O)Cn2nc(C(F)(F)F)c(Cl)c2C)ncn1-c1ccc(F)cc1` [1.020] here?
**A.** Its IC50 is 100 to 10000 nM.

**Q.** With `Cc1c(Cl)c(C(F)(F)F)nn1CC(=O)Nc1cnn(-c2ccc(F)cc2)c1-c1ccccc1` [1.021] as the compound, how does the IC50 read?
**A.** Its IC50 is 100 to 10000 nM.

**Q.** For `Cc1c(Cl)c(C(F)(F)F)nn1CC(=O)Nc1cnn(-c2ccc(F)cc2)c1C(C)C` [1.022], which IC50 is on record?
**A.** Its IC50 is at most 100 nM.

**Q.** `CCc1c(NC(=O)Cn2nc(C(F)(F)F)c(Cl)c2C)cnn1-c1ccc(F)cc1` [1.023] was tested. Which IC50 did it give?
**A.** The IC50 was 100 to 10000 nM.

**Q.** Which IC50 does the source give for `Cc1nc(C(F)(F)F)cn1C(C)C(=O)Nc1cnn(-c2ccc(F)cc2)c1C` (stereo not drawn) [1.024] here?
**A.** The IC50 was 100 to 10000 nM.

**Q.** For `Cc1c(Cl)c(C(F)(F)F)nn1CC(=O)Nc1cnn(-c2ccc(F)cc2)c1C` [1.025], which IC50 is on record?
**A.** The IC50 was 100 to 10000 nM.

**Q.** Which IC50 does the source give for `Cc1c(Cl)c(C(F)(F)F)nn1CC(=O)N(C)c1cnn(-c2ccc(F)cc2)c1` [1.026] here?
**A.** Its IC50 is 100 to 10000 nM.

**Q.** How did the IC50 turn out when `Cc1c(Cl)c(C(F)(F)F)nn1CC(=O)Nc1cnn(-c2ccc(F)cc2)c1` [1.027] was run?
**A.** Its IC50 is 100 to 10000 nM.

**Q.** How did the IC50 turn out when `Cc1nc(C(F)(F)F)cn1C(C)C(=O)Nc1cnc(-c2ccc(Cl)cc2)n1C(C)C` (stereo not drawn) [1.028] was run?
**A.** Its IC50 is 100 to 10000 nM.

**Q.** For `Cc1nc(C(F)(F)F)cn1[C@@H](C)C(=O)Nc1cnn(-c2ccc(Cl)cc2)c1C1CCC1` [1.029], which IC50 is on record?
**A.** Its IC50 is at most 100 nM.

test system: inflammatory cells recruited to the inflamed synovial fluid of the knee joints; test: Rabbit model of destructive joint inflammation (rabbit LPS study); type: in vivo, Female New Zealand rabbits; details: intra-articular LPS (10 ng), dosed orally in 1% methocel 2 hours before and 4 hours after LPS, knees lavaged sixteen hours after LPS
Protocol: A rabbit LPS study was conducted essentially as described in Podolin, et al. J. Immunol. 169(11):6435-6444 (2002). Female New Zealand rabbits (approximately 2 kilograms) were treated intra-articularly in both knees with LPS (10 ng). The compound of interest, for example 1.016, (formulated in 1% methocel) or vehicle (1% methocel) was dosed orally at a 5 ml/kg dose volume at two times (2 hours before the intra-articular LPS injection and 4 hours after the intra-articular LPS injection). Sixteen hours after the LPS injection, knees were lavaged and cells counts were performed. Beneficial effects of treatment were determined by reduction in the number of inflammatory cells recruited to the inflamed synovial fluid of the knee joints.

**Q.** For `Cc1c(Cl)c(C(F)(F)F)nn1C(C)C(=O)Nc1cnn(-c2ccc(F)cc2)c1C(C)C` (stereo not drawn) [1.016], which “reduction in the number of inflammatory cells recruited to the inflamed synovial fluid of the knee joints” value is on record?
**A.** Its value is “significant reduction in recruited inflammatory cells”.
